{"source": "BindingDB's records for patent US10548896", "about": "(Celgene Quanticel Research, 2020)", "biological_target": "Lysine-specific histone demethylase 1A (Homo sapiens, UniProt O60341)", "test": "In Vitro Enzyme Inhibition Assay - LSD-1"}
{"compound": "CN(C)C1CCN(c2nc(-c3ccc(C#N)c(F)c3)c(C3=CC4C=NN(C)C4C=C3)c(=O)n2C)CC1", "note": "(stereo unspecified) [US10548896, Example 72]", "values": [{"measurement": "IC50", "result": "< 100", "unit": "nM"}]}
